Test results as given in ChEMBL document CHEMBL3407492, “BMS-871: a novel orally active pan-Notch inhibitor as an anticancer agent” (Bioorg Med Chem Lett, 2015).

Columns and labels:
[1] = Metabolic stability in human liver microsomes assessed as fraction of 0.5 uM parent compound remaining after 10 mins; format: ADME; conditions: read-out: Stability
[2] = Metabolic stability in mouse liver microsomes assessed as fraction of 0.5 uM parent compound remaining after 10 mins; format: ADME; conditions: read-out: Stability
TALL-1 [3] = test: Anticancer activity against human TALL-1 cells assessed as cell number by coulter channelyzer; format: functional, cell-based
MDA-MB-157 [4] = test: In vivo antitumor activity against human MDA-MB-157 cells xenograft model assessed as tumor growth inhibition at 7.5 mg/kg, po qd for 10 days on - 2 days off - 5 days on; format: functional; conditions: read-out: TGI
MDA-MB-157 [5] = test: In vivo antitumor activity against human MDA-MB-157 cells xenograft model assessed as tumor growth inhibition at 30 mg/kg, po qd for 10 days on - 2 days off - 5 days on; format: functional; conditions: read-out: TGI
MDA-MB-157 [6] = test: In vivo antitumor activity against human MDA-MB-157 cells xenograft model assessed as tumor growth inhibition at 15 mg/kg, po qd for 10 days on - 2 days off - 5 days on; format: functional; conditions: read-out: TGI
TALL-1 [7] = test: In vivo antitumor activity against human TALL-1 cells xenograft model assessed as tumor growth inhibition at 6 mg/kg, po qd for 10 days on - 2 days off - 5 days on; format: functional; conditions: read-out: TGI
TALL-1 [8] = test: In vivo antitumor activity against human TALL-1 cells xenograft model assessed as tumor growth inhibition treated po qd for 10 days on - 2 days off - 5 days on; format: functional, organism-based
TALL-1 [9] = test: In vivo antitumor activity against human TALL-1 cells xenograft model assessed as tumor growth inhibition at 24 mg/kg, po qd for 10 days on - 2 days off - 5 days on; format: functional; conditions: read-out: TGI

Structure (SMILES)	remaining at 10 min, 0.5 µM [1] [%]	remaining at 10 min, 0.5 µM [2] [%]	IC50 (TALL-1 [3]) [nM]	other results
NC(=O)[C@@H](c1cocn1)[C@@H](CCC(F)(F)F)C(=O)N[C@H]1N=C(c2ccccc2)c2ccccc2NC1=O	86	99	–	–
CN1C(=O)[C@@H](NC(=O)[C@H](CCC(F)(F)F)[C@@H](C(N)=O)c2ccc(F)cc2F)N=C(c2ccccc2)c2ccccc21	100	31	4	–
NC(=O)[C@@H](c1cnoc1)[C@@H](CCC(F)(F)F)C(=O)N[C@H]1N=C(c2ccccc2)c2ccccc2NC1=O	96	100	–	–
CN1C(=O)[C@@H](NC(=O)[C@H](CCC(F)(F)F)[C@@H](C(N)=O)c2cc(F)cc(F)c2)N=C(c2ccccc2)c2ccccc21	94	21	4	–
CN1C(=O)[C@@H](NC(=O)[C@H](CCC(F)(F)F)[C@@H](C(N)=O)c2ccccc2)N=C(c2ccccc2)c2ccccc21	95	74	4	inhibition in vivo at 7.5 mg/kg (MDA-MB-157 [4]): 63%; inhibition in vivo at 30 mg/kg (MDA-MB-157 [5]): 99%; inhibition in vivo at 15 mg/kg (MDA-MB-157 [6]): 76%; inhibition in vivo at 6 mg/kg (TALL-1 [7]): 71%; inhibition (TALL-1 [8]): Dose-dependent effect; inhibition in vivo at 24 mg/kg (TALL-1 [9]): 102%
CN1C(=O)[C@@H](NC(=O)[C@H](CCC(F)(F)F)[C@@H](C(N)=O)c2ccc(F)c(F)c2)N=C(c2ccccc2)c2ccccc21	94	29	4	–
CCC(CC)[C@H](C(N)=O)[C@@H](CCC(F)(F)F)C(=O)N[C@H]1N=C(c2ccccc2)c2ccccc2N(C)C1=O	5	7	–	–
Cc1cc([C@H](C(N)=O)[C@@H](CCC(F)(F)F)C(=O)N[C@H]2N=C(c3ccccc3)c3ccccc3N(C)C2=O)no1	94	10	–	–
CCC(CC)[C@H](C(N)=O)[C@@H](CC(C)(C)C)C(=O)N[C@H]1N=C(c2ccccc2)c2ccccc2N(C)C1=O	1	6	–	–
CCC(CC)[C@H](C(N)=O)[C@@H](CC(C)C)C(=O)N[C@H]1N=C(c2ccccc2)c2ccccc2N(C)C1=O	2	2	3	–
NC(=O)[C@@H](c1ncon1)[C@@H](CCC(F)(F)F)C(=O)N[C@H]1N=C(c2ccccc2)c2ccccc2NC1=O	84	83	–	–
CN1C(=O)[C@@H](NC(=O)[C@H](CCC(F)(F)F)[C@@H](C(N)=O)c2cccc(OC(F)(F)F)c2)N=C(c2ccccc2)c2ccccc21	100	82	26	–
CN1C(=O)[C@@H](NC(=O)[C@H](CCC(F)(F)F)[C@@H](C(N)=O)c2ccc(F)cc2)N=C(c2ccccc2)c2ccccc21	95	65	5	–
CCC[C@H](C(N)=O)[C@@H](CC(F)(F)F)C(=O)N[C@H]1N=C(c2ccccc2)c2ccccc2N(C)C1=O	45	51	158	–
Cc1nc([C@H](C(N)=O)[C@@H](CCC(F)(F)F)C(=O)N[C@H]2N=C(c3ccccc3)c3ccccc3N(C)C2=O)no1	100	24	–	–
CN1C(=O)[C@@H](NC(=O)[C@H](CCC(F)(F)F)[C@@H](C(N)=O)c2cccc(S(C)(=O)=O)c2)N=C(c2ccccc2)c2ccccc21	93	62	–	–
COc1ccc([C@H](C(N)=O)[C@@H](CCC(F)(F)F)C(=O)N[C@H]2N=C(c3ccccc3)c3ccccc3N(C)C2=O)cc1	62	5	4	–
CN1C(=O)[C@@H](NC(=O)[C@H](CCC(F)(F)F)[C@@H](C(N)=O)c2cccc(C(F)(F)F)c2)N=C(c2ccccc2)c2ccccc21	92	59	13	–
Cc1cccc([C@H](C(N)=O)[C@@H](CCC(F)(F)F)C(=O)N[C@H]2N=C(c3ccccc3)c3ccccc3N(C)C2=O)c1	23	7	15	–
Cc1nocc1[C@H](C(N)=O)[C@@H](CCC(F)(F)F)C(=O)N[C@H]1N=C(c2ccccc2)c2ccccc2N(C)C1=O	78	23	–	–
